The source of these data is patent publication US10538498B2, “1,3,4-oxadiazole sulfonamide derivative compounds as histone deacetylase 6 inhibitor, and the pharmaceutical composition comprising the same” (Chong Kun Dang Pharmaceutical Corp., priority 2015, dated 2020).

For this experiment, the target named is T1, human recombinant HDAC6 (Homo sapiens, UniProt Q9UBN7).
T1 construct: purchased Calbiochem 382180
T1 sequence (Q9UBN7 1-1215): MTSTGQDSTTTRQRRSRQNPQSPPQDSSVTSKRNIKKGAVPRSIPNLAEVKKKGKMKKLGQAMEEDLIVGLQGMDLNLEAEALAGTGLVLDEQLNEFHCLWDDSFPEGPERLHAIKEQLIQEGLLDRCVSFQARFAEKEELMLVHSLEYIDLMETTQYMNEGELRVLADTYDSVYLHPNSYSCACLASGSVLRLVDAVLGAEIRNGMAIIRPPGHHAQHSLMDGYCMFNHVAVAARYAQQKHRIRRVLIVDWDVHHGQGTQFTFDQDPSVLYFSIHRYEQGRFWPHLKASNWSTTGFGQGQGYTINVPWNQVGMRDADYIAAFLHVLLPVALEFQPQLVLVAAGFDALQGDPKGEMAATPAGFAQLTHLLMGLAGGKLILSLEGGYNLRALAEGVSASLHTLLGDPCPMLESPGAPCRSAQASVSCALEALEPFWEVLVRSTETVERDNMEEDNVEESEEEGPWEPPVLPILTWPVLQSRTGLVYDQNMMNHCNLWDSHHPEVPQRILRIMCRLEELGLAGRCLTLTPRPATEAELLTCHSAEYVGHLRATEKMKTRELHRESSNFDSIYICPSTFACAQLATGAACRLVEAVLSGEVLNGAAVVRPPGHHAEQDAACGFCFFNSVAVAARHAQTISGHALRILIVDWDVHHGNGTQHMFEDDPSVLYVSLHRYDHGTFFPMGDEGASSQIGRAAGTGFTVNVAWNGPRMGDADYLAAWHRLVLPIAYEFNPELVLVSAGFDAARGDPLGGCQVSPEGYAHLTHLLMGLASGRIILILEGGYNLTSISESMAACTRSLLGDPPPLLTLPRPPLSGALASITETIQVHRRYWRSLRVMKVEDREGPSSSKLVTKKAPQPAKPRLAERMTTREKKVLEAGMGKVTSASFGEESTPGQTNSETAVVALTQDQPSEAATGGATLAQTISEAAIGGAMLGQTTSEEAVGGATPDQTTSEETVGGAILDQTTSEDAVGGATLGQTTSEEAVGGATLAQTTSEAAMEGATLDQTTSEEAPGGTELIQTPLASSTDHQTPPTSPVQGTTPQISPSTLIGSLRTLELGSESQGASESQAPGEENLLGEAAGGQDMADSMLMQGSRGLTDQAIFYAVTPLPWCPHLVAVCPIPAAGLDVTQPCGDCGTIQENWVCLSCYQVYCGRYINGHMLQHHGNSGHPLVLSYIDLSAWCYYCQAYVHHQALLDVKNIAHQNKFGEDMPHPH
In words: HDAC6 enzyme activity inhibition assay (HDAC Fluorimetric Drug Discovery Kit). The class given is biochemical. The conditions noted are these: for HDAC6 selectivity (fold): HDAC1 vs HDAC6; for IC50: same protocol as the HDAC1 enzyme activity test. The procedure:
In order to examine the HDAC6 selectivity of the compounds of formula I of the present invention by HDAC1 and HDAC6 enzymatic activity inhibition assays, an experiment was performed using a conventional substance as a control.
HDAC enzyme activity was measured using a HDAC Fluorimetric Drug Discovery Kit (BML-AK511, 516, Enzo Life Science). For the HDAC1 enzyme activity test, human recombinant HDAC1 (BML-SE456) was used as an enzyme source, and Fluor de Lys®-“SIRT1 (BNL-KI177) was used as a substrate. A 5-fold dilution of the compound was seeded into a 96-well plate, and then 0.3 μg of the enzyme and 10 μM of the substrate were added to each well of the plate and allowed to react at 30° C. for 60 minutes. Then, Fluor de Lys®-Developer II (BML-KI176) was added thereto and allowed to react for 30 minutes, after which the fluorescence value (Ex 360, Em 460) was measured using a multi-plate reader (Flexstation 3, Molecular Device). The HDAC6 enzyme was tested using human recombinant HDAC6 (382180) (Calbiochem) according to the same protocol as the HDAC1 enzyme activity test method. Based on the resulting values, each IC50 value was calculated using GraphPad Prism4.0 program.

Usually IC50 stands for the concentration at which inhibition is half-maximal.

`CC(C)(C)OC(=O)N1CCN(CCS(=O)(=O)N(Cc2ccc(-c3nnc(C(F)F)o3)cc2)c2ccccc2)CC1` [Compound 11631, tert-butyl 4-(2-(N-(4-(5-(difluoromethyl)-1,3,4-oxadiazol-2-yl)benzyl)-N-phenylsulfamoyl)ethyl)piperazine-1-carboxylate]: the “HDAC6 selectivity (fold)” value turned out to be 436 fold and the IC50 was 229 nM.

In the case of `CS(=O)(=O)N1CCC(S(=O)(=O)N(Cc2ccc(-c3nnc(C(F)F)o3)cn2)c2ccccc2)CC1` [Compound 11426, N-((5-(5-(difluoromethyl)-1,3,4-oxadiazol-2-yl)pyridin-2-yl)methyl)-1-(methylsulfonyl)-N-phenylpiperidine-4-sulfonamide], the “HDAC6 selectivity (fold)” value stood at 7692 fold and the IC50 was 13 nM.

`NC(=O)[C@@H]1CCCN1CCS(=O)(=O)N(Cc1ccc(-c2nnc(C(F)F)o2)cc1)c1ccccc1` [Compound 11812, (S)-1-(2-(N-(4-(5-(difluoromethyl)-1,3,4-oxadiazol-2-yl)benzyl)-N-phenylsulfamoyl)ethyl)pyrrolidine-2-carboxamide]: the “HDAC6 selectivity (fold)” value was found to be 3039 fold and the IC50 was determined as 32.9 nM.

On to `O=S(=O)(C1CC1)N(Cc1ccc(-c2nnc(C(F)F)o2)cc1F)c1ccccc1` [Compound 11291, N-(4-(5-(difluoromethyl)-1,3,4-oxadiazol-2-yl)-2-fluorobenzyl)-N-phenylcyclopropanesulfonamide], for which the “HDAC6 selectivity (fold)” value turned out to be 3226 fold and the IC50 was 31 nM.

Regarding `O=S(=O)(c1cccnc1)N(Cc1ccc(-c2nnc(C(F)(F)F)o2)cc1)c1ccccc1` [Compound 11151, N-phenyl-N-(4-(5-(trifluoromethyl)-1,3,4-oxadiazol-2-yl)benzyl)pyridine-3-sulfonamide], the “HDAC6 selectivity (fold)” value is given as 741 fold and the IC50 amounted to 135 nM.

Turning to `Cc1cccc(N(Cc2ccc(-c3nnc(C(F)F)o3)cc2)S(=O)(=O)C2CCN(C3COC3)CC2)c1` [Compound 11682, N-(4-(5-(difluoromethyl)-1,3,4-oxadiazol-2-yl)benzyl)-1-(oxetan-3-yl)-N-(m-tolyl)piperidine-4-sulfonamide], the “HDAC6 selectivity (fold)” value amounted to 4545 fold and the IC50 was found to be 22 nM.

Consider `CS(=O)(=O)N(Cc1ccc(-c2nnc(C(F)F)o2)cn1)CC12CC3CC(CC(C3)C1)C2` [Compound 11669, N-((adamantan-1-yl)methyl)-N-((5-(5-(difluoromethyl)-1,3,4-oxadiazol-2-yl)pyridin-2-yl)methyl)methanesulfonamide], for which the “HDAC6 selectivity (fold)” value was determined as 900 fold and the IC50 came out at 111 nM.

For the compound `O=S(=O)(CCN1CCCC(O)C1)N(Cc1ccc(-c2nnc(C(F)F)o2)cc1)c1ccccc1` (centres unmarked) [Compound 11700, N-(4-(5-(difluoromethyl)-1,3,4-oxadiazol-2-yl)benzyl)-2-(3-hydroxypiperidin-1-yl)-N-phenylethanesulfonamide], the “HDAC6 selectivity (fold)” value stood at 782 fold and the IC50 was determined as 128 nM.

In the case of `NC(=O)[C@@H]1C[C@@H](O)CN1CCS(=O)(=O)N(Cc1ccc(-c2nnc(C(F)F)o2)cn1)c1ccccc1` [Compound 11849, (2S,4R)-1-(2-(N-((5-(5-(difluoromethyl)-1,3,4-oxadiazol-2-yl)pyridin-2-yl)methyl)-N-phenylsulfamoyl)ethyl)-4-hydroxypyrrolidine-2-carboxamide], the “HDAC6 selectivity (fold)” value came out at 1605 fold and the IC50 worked out at 62.3 nM.

`O=S(=O)(CCn1ccnc1)N(Cc1ccc(-c2nnc(C(F)F)o2)cc1)c1ccccc1` [Compound 11816, N-(4-(5-(difluoromethyl)-1,3,4-oxadiazol-2-yl)benzyl)-2-(1H-imidazol-1-yl)-N-phenylethane-1-sulfonamide]: the “HDAC6 selectivity (fold)” value came out at 2695 fold and the IC50 is 37.1 nM.

In the case of `CCN1CCN(CCS(=O)(=O)N(Cc2ccc(-c3nnc(C(F)F)o3)cc2)c2ccccc2)CC1` [Compound 11757, N-(4-(5-(difluoromethyl)-1,3,4-oxadiazol-2-yl)benzyl)-2-(4-ethylpiperazin-1-yl)-N-phenylethane-1-sulfonamide], the “HDAC6 selectivity (fold)” value turned out to be 1447 fold and the IC50 turned out to be 69.1 nM.

Turning to `O=S(=O)(CCCN1CCOCC1)N(Cc1ccc(-c2nnc(C(F)F)o2)cc1)c1ccc(F)c(Cl)c1` [Compound 11723, N-(3-chloro-4-fluorophenyl)-N-(4-(5-(difluoromethyl)-1,3,4-oxadiazol-2-yl)benzyl)-3-morpholinopropane-1-sulfonamide], the “HDAC6 selectivity (fold)” value was 1272 fold and the IC50 was determined as 78.6 nM.

Regarding `Cc1cccc(N(Cc2ccc(-c3nnc(C(F)F)o3)cn2)S(C)(=O)=O)c1` [Compound 11355, N-((5-(5-(difluoromethyl)-1,3,4-oxadiazol-2-yl)pyridin-2-yl)methyl)-N-(m-tolyl)methanesulfonamide], the “HDAC6 selectivity (fold)” value amounted to 6250 fold and the IC50 was 16 nM.

Consider `CS(=O)(=O)N(Cc1ccc(-c2nnc(C(F)F)o2)cc1F)c1cccc(Br)c1` [Compound 11197, N-(3-bromophenyl)-N-(4-(5-(difluoromethyl)-1,3,4-oxadiazol-2-yl)-2-fluorobenzyl)methanesulfonamide], for which the “HDAC6 selectivity (fold)” value is 6667 fold and the 50% inhibitory concentration (IC50) was 15 nM.

With `O=S(=O)(CCN1CCC(CO)CC1)N(Cc1ccc(-c2nnc(C(F)F)o2)cc1)c1ccccc1` [Compound 11810, N-(4-(5-(difluoromethyl)-1,3,4-oxadiazol-2-yl)benzyl)-2-(4-(hydroxymethyl)piperidin-1-yl)-N-phenylethane-1-sulfonamide], the “HDAC6 selectivity (fold)” value is 2793 fold and the IC50 worked out at 35.8 nM.

For `Cc1cccc(N(Cc2ccc(-c3nnc(C(F)F)o3)cn2)S(=O)(=O)C2CCN(C3CN(C(=O)CO)C3)CC2)c1` [Compound 11839, N-((5-(5-(difluoromethyl)-1,3,4-oxadiazol-2-yl)pyridin-2-yl)methyl)-1-(1-(2-hydroxyacetyl)azetidin-3-yl)-N-(m-tolyl)piperidine-4-sulfonamide], the “HDAC6 selectivity (fold)” value stood at 2236 fold and the IC50 was determined as 44.7 nM.

Take `Cc1ccc(N(Cc2ccc(-c3nnc(C(F)F)o3)cc2F)S(C)(=O)=O)cc1` [Compound 11283, N-(4-(5-(difluoromethyl)-1,3,4-oxadiazol-2-yl)-2-fluorobenzyl)-N-(p-tolyl)methanesulfonamide]: the “HDAC6 selectivity (fold)” value is 1852 fold and the IC50 was 54 nM.

As for `CCS(=O)(=O)N(Cc1ccc(-c2nnc(C(F)F)o2)cc1F)c1cccc(CN2CCS(=O)(=O)CC2)c1` [Compound 11392, N-(4-(5-(difluoromethyl)-1,3,4-oxadiazol-2-yl)-2-fluorobenzyl)-N-(3-((1,1-dioxidothiomorpholino)methyl)phenyl)ethanesulfonamide], the “HDAC6 selectivity (fold)” value is listed as 1000 fold and the IC50 stood at 100 nM.

With `COC(=O)CCS(=O)(=O)N(Cc1ccc(-c2nnc(C(F)F)o2)cc1F)c1ccccc1` [Compound 11287, methyl 3-(N-(4-(5-(difluoromethyl)-1,3,4-oxadiazol-2-yl)-2-fluorobenzyl)-N-phenylsulfamoyl)propanoate], the “HDAC6 selectivity (fold)” value turned out to be 3448 fold and the IC50 is 29 nM.
